Data from patent US11529317B2, “Method of preparing silica nanocapsules and silica nanocapsules” (Agency for Science, Technology and Research, priority 2017, dated 2022).

Experiment: Timed release of glycerol in aqueous media, standard enzymatic assay
Type: physicochemical
Conditions: control
Description: In this example, timed release studies were conducted on the glycerol loaded silica nanocapsules in accordance with various embodiments disclosed herein. Firstly, the synthesized silica nano lens particles were loaded with glycerol. Then, they were suspended in aqueous media and compared with controls.
The percentage of glycerol released from the lens-shaped particles over a period of 80 minutes is estimated using standard enzymatic assay and the results are shown in FIG. 12. […] On the other hand, encapsulated glycerol is released gradually from the lens-shaped particles over a period of approximately two hours.

dissolution of glycerol in water: instantly dissolves
SMILES: OCC(O)CO [unencapsulated glycerol, glycerol]
